Results as given in patent publication EP1298214A2, “Plant thioesterases” (Calgene LLC, priority 1990, dated 1991).

Experiments:
[1] = test system: Cuphea C10 acyl-ACP thioesterase; test: Cuphea thioesterase substrate specificity at the hydroxyapatite stage (Example 9A); assay type: biochemical, Cuphea hookeriana; settings: hydroxyapatite stage in purification
Method: Following the same general procedures as outlined in Example 1, to assay for C10 thioesterase activity, the following mixture is incubated at 30° for 10-60 min: 50µl sample to be tested in the same or similar "extraction buffer" described in Example 9A, and approximately 250pmol of [^14C]-radiolabeled acyl-ACP substrate, (usually decanoyl-ACP is labeled in the carboxylate group to 50-60µCi/µmol) in a total volume of […], for a final decanoyl-ACP concentration of 0.5-5.0µM, typically 5.0µM. The reaction is stopped by adding 0.5ml 10% (v/v) cold (4°) acetic acid and placing the reaction mixture on ice for a few minutes. The fatty acid product of the hydrolytic enzyme action is extracted away from the unhydrolyzed substrate by adding 2ml diethyl ether and mixing vigorously. The ether is transferred to 5ml scintillation fluid for scintillation counting. Additional ether extracts may be performed to recover remaining traces of product for more accurate quantitation of the activity if desired.
The resulting preparation is then subjected to hydroxyapatite column chromatography. The following method applies to ammonium sulfate fraction from 100g fresh weight of starting seed tissue. The dialyzed ammonium sulfate fraction (35-40ml) is applied to a column of hydroxyapatite (2.5cm x 14cm bed height of Bio-Gel HTP from Bio-Rad Inc.; Richmond, CA, catalog no. 130-0420), equilibrated in 50mM KH2PO4-KOH pH 6.9, 10% (v/v) glycerol, 4mM 2-mercaptoethanol. The column is then washed (flow rate 1.5ml/min throughout) with 280ml of the same buffer. Elution is accomplished with a 580ml linear gradient from these conditions to 350mM KH2PO4-KOH pH 6.9, 10% (v/v) glycerol, 4mM 2-mercaptoethanol, collecting fractions of 12ml volume. The eluted fractions are assayed for hydrolase activity using decanoyl-ACP as substrate. […]
The substrate specificity of Cuphea C10 acyl-ACP thioesterase towards medium-chain acyl-ACP's has been determined at the hydroxyapatite stage in purification, as described in Example 9A: Table 6

[2] = biological target: T1, pCGN3823 induced E. coli lysate (mature bay thioesterase) (Umbellularia californica, UniProt Q41635); test: Acyl-ACP hydrolysis by lysate of E. coli expressing mature bay thioesterase as lac fusion; assay type: biochemical; settings: Dilution 1/4000, one hour induction with 0.1mM IPTG
T1 construct: the entire mature bay thioesterase protein is expressed as a lac fusion in E. coli cells; made in house
T1 sequence (Q41635 84-382): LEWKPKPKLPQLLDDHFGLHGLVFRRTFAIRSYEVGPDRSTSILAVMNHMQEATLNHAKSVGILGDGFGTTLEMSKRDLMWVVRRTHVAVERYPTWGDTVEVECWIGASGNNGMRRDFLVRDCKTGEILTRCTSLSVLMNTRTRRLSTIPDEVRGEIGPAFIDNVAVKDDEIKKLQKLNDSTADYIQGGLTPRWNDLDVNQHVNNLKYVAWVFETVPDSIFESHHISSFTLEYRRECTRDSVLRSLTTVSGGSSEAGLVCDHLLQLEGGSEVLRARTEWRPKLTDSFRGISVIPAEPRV
Method: To assay for C12 thioesterase activity the following mixture is incubated at 30° for 30 min: "buffer" comprising 7mM KH2PO4-KOH pH 8, 20% v/v glycerol, 1mM dithiothreitol (DTT), 0.1% v/v Triton X100; sample to be tested for activity in the same or similar buffer as the "extraction buffer" described in Example 2; and 5µl of ^14C-radiolabeled lauroyl-ACP substrate for a total volume of 100µl and final lauroyl-ACP concentration of 0.5µM. Lauroyl-ACP substrate is prepared according to the method of Rock et al (Methods in Enzymology (1981) 72:397-403), using ACP prepared from Escherichia coli by the method of Rock and Cronan (Methods in Enzymology (1981) 71:341-351). The laurate is radiolabeled in the carboxylate group at a specific radioactivity of 50-60µCi/µmol.
The reaction is stopped by adding 0.5ml cold (0°) 10% v/v acetic acid. The fatty acid product of the hydrolytic enzyme action is extracted away from the unhydrolyzed substrate by adding 1ml diethyl ether and mixing vigorously. After settling for a few minutes the upper ether layer is transferred to 5ml scintillation fluid for determination of radioactivity by liquid scintillation spectrometry. Additional ether extractions may be performed to recover remaining traces of the reaction product for more accurate quantitation of the enzyme activity if desired. The amount of ether-extracted radioactivity is a direct measure of C12-preferring acyl-ACP thioesterase activity, provided the amount of enzyme is not sufficient to hydrolyze more than about 25% of the substrate. With greater activity than this the relationship between radioactivity in the ether layer and the quantity of enzyme becomes markedly nonlinear. The enzyme preparation must then be diluted appropriately to bring the activity into the linear range of the assay.
In addition, the entire mature bay thioesterase protein is expressed as a lac fusion in E. coli cells. […] Digestion at this XbaI site cleaves the coding region immediately 5' of the codon representing the leucine at amino acid position 72. This leucine has been identified as a candidate for the amino terminal residue as described in Example 14A.
An approximately 1200 bp fragment of pCGN3822 cDNA is generated by digestion with XbaI, which cuts at the postulated mature protein start site, as described above, and in the vector sequences flanking the 3' end of the cDNA. The XbaI fragment is cloned on XbaI digest of the minus version of a Bluescribe M13(+/-) (also called pBS+/-) cloning vector (Stratagene; San Diego, CA.). The thioesterase gene clone is inserted such that the mature protein is in reading frame with a portion of the lacZ gene of the Bluescribe vector and under control of the lac promoter. […]

Substance | Hydrolysis Activity (mean) [1] [pmol/min] | Hydrolysis Activity (mean cpm in ether extract) [2] [cpm]
14:0-ACP | 4055 | 116
16:0-ACP | – | 20
decanoyl-ACP [10:0-ACP] | 6950 | 0
lauroyl-ACP [12:0-ACP] | 1032 | 1840
